{"source": "patent US20220168325A1", "about": "“METHODS TO PROMOTE CEREBRAL BLOOD FLOW IN THE BRAIN” (THE UNIVERSITY OF VERMONT, priority 2019, published 2022)", "key": {"[1]": {"test_system": "capillary-to-arteriole electrical signaling", "assay": "Ex vivo CaPA preparation from transgenic mice: arteriolar tone and dilation to capillary 10 mM K+", "conditions": "for Arteriolar dilation in response to capillary stimulation with 10 mM K+: 1 mM 4-AP, 30 ng/mL HB-EGF bath, or exogenous PIP2 bath; for Myogenic tone of arteriolar segment: 1 mM 4-AP or 30 ng/mL HB-EGF"}, "Kir2.1 channel [2]": {"biological_target": "T1, Kir2.1 channel (Mus musculus, UniProt P35561)", "T1 sequence (P35561 1-428)": "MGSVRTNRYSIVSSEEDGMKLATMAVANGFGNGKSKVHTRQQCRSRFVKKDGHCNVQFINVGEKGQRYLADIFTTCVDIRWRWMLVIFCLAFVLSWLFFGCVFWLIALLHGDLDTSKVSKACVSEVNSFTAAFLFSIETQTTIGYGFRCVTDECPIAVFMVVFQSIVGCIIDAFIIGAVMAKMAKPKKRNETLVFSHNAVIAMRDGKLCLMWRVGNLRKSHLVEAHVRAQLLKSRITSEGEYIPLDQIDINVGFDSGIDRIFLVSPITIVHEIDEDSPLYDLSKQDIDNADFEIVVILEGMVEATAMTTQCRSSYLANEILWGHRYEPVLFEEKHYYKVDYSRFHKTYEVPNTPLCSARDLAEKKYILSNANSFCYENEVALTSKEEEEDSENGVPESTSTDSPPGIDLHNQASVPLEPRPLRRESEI", "assay": "Patch-clamp recording of Kir2.1 currents in freshly isolated brain capillary endothelial cells (cECs)", "conditions": "for Effect of simultaneous PKC and IP3R/Ca2+ block on PGE2-mediated suppression of Kir2.1 currents: 1 μM Gö6976 + 30 μM CPA bath-applied + 5.4 mM BAPTA dialyzed together; for Effect of simultaneous PKC and IP3R/Ca2+ block on PGE2-mediated suppression of Kir2.1 currents / Effect on PGE2-induced reduction of Kir2.1 current: PGE2 2 μM, 0 mM Mg-ATP; for Effect on PGE2-induced reduction of Kir2.1 current: diC8-PIP2 10 μM dialyzed, U73122 10 μM bath, Gö6976 1 μM bath, BAPTA 5.4 mM dialyzed; for Decline of Kir2.1 currents over 15 min: in pipette: 1 mM Mg-ATP, 1 mM Mg-ATP-γ-S, or 10 μM diC8-PIP2 with 0 mM Mg-ATP"}, "functional hyperemia": {"test_system": "functional hyperemia", "assay": "Whisker stimulation-induced functional hyperemia in vivo (laser Doppler flowmetry, somatosensory cortex)", "set-up": "species or system TgNotch3^WT and TgNotch3^R169C mice", "conditions": "for CBF responses to whisker stimulation: 20 nM HB-EGF perfused over cranial window"}, "[3]": {"test_system": "K+-evoked capillary hyperemia", "assay": "In vivo two-photon imaging of K+-evoked capillary RBC flux through cranial window", "set-up": "species or system C57BL/6J mouse", "conditions": "0-mM Ca2+ solution containing 200 μM diltiazem on cranial surface, end of experiment"}, "Kir2.1 channel [4]": {"biological_target": "T1, Kir2.1 channel", "assay": "Patch-clamp Ba2+-sensitive Kir2.1 current in cECs from transgenic mice", "type": "cell-based, TgNotch3^WT and TgNotch3^R169C mice", "set-up": "freshly isolated capillary endothelial cells from TgNotch3^WT and TgNotch3^R169C brains; endogenous in cells; host or cells: freshly isolated brain capillary endothelial cells from TgNotch3^WT and TgNotch3^R169C mice (FVB/N background)", "conditions": "HB-EGF (30 ng/ml, 20 minutes)"}, "[5]": {"conditions": "cECs dialyzed with 1 mM Mg-ATP, PKC, PKG, PKA inhibitors"}, "[6]": {"conditions": "dialyzed cECs, 1 mM Mg-ATP, 1 μM Gö6976, 10 μM Rp-8-Br-PET-cGMPS, 1 μM H-89"}, "[7]": {"conditions": "conventional whole-cell, dialyzed cECs"}}, "note": "Structures can show the parent of a compound that is named as a salt. Where two headings read alike, the source gives them in different places.", "data": [{"molecule": "Nc1ccncc1", "note": "[4-aminopyridine]", "values": [{"measurement": "Arteriolar dilation in response to capillary stimulation with 10 mM K+", "setting": "[1]; TgNotch3^R169C CaPA", "result": "did not restore arteriolar dilation"}, {"measurement": "Myogenic tone of arteriolar segment", "setting": "[1]; TgNotch3^R169C", "result": "restores myogenic tone"}]}, {"molecule": "CC(C)Oc1ccc2c(=O)c3cc(C(=O)O)ccc3oc2c1", "note": "[AH6809]", "values": [{"measurement": "Effect on inhibitory effect of PGE2 on Kir2.1 currents", "setting": "Kir2.1 channel [2]", "result": "prevented"}]}, {"molecule": "O=C(O)CN(CC(=O)O)c1ccccc1OCCOc1ccccc1N(CC(=O)O)CC(=O)O", "note": "[BAPTA, 1,2-bis(2-aminophenoxy)ethane-N,N,N′,N′-tetraacetic acid]", "values": [{"measurement": "Effect of simultaneous PKC and IP3R/Ca2+ block on PGE2-mediated suppression of Kir2.1 currents", "setting": "Kir2.1 channel [2]", "result": "lack of an effect"}, {"measurement": "Effect on PGE2-induced reduction of Kir2.1 current", "setting": "Kir2.1 channel [2]; dialyzed cECs", "result": "no effect"}]}, {"molecule": "[Ba+2]", "note": "[Ba^2+]", "values": [{"measurement": "Inwardly rectifying Kir2.1 currents, block", "setting": "Kir2.1 channel [2]", "result": "abolished"}, {"measurement": "K+-induced upstream vasodilation", "setting": "[1]; Ba2+, TgNotch3^R169C, Timp3^+/- mice", "result": "completely abolished"}, {"measurement": "Effect on CBF responses to whisker stimulation", "setting": "functional hyperemia; 100 μM Ba2+, TgNotch3^R169C mice", "result": "had no effect"}, {"measurement": "Decrease of functional hyperemia", "setting": "functional hyperemia; 100 μM Ba2+, TgNotch3^WT mice", "result": 60, "unit": "%"}, {"measurement": "HB-EGF-mediated increase in functional hyperemia", "setting": "functional hyperemia; Ba2+ in presence of HB-EGF, CADASIL mice", "result": "inhibited"}]}, {"molecule": "Cn1c2ccccc2c2c3c(c4c5ccccc5n(CCC#N)c4c21)CNC3=O", "note": "[Gö6976, 12-(2-cyanoethyl)-6,7,12,13-tetrahydro-13-methyl-5-oxo-5H-indolo(2,3-a)pyrrolo(3,4-c)-carbazole]", "values": [{"measurement": "Effect of simultaneous PKC and IP3R/Ca2+ block on PGE2-mediated suppression of Kir2.1 currents", "setting": "Kir2.1 channel [2]", "result": "lack of an effect"}, {"measurement": "Effect on peak Kir2.1 current densities at -140 mV", "setting": "Kir2.1 channel [2]; [5]", "result": "absence of an effect"}, {"measurement": "Effect on PGE2-induced reduction of Kir2.1 current", "setting": "Kir2.1 channel [2]; dialyzed cECs", "result": "no effect"}, {"measurement": "Effect on Mg-ATP-mediated maintenance of Kir2.1 currents over 15 min", "setting": "Kir2.1 channel [2]; [6]", "result": "unaltered"}]}, {"molecule": "Cl.Cl.O=S(=O)(NCCNC/C=C/c1ccc(Br)cc1)c1cccc2cnccc12", "note": "[H-89 dihydrochloride]", "values": [{"measurement": "Effect on peak Kir2.1 current densities at -140 mV", "setting": "Kir2.1 channel [2]; [5]", "result": "absence of an effect"}, {"measurement": "Effect on Mg-ATP-mediated maintenance of Kir2.1 currents over 15 min", "setting": "Kir2.1 channel [2]; [6]", "result": "unaltered"}]}, {"molecule": "Nc1ncnc2c1ncn2[C@@H]1O[C@H](COP(=O)(O)OP(=O)(O)OP(O)(O)=S)[C@@H](O)[C@H]1O", "note": "[Mg-ATP-γ-S]", "values": [{"measurement": "Decline of Kir2.1 currents over 15 min", "setting": "Kir2.1 channel [2]; [7]", "result": "failed to avert current decay"}]}, {"molecule": "Nc1nc2c(ncn2[C@@H]2O[C@H](COP(=O)(O)OP(=O)(O)OP(=O)(O)O)[C@@H](O)[C@H]2O)c(=O)[nH]1", "note": "[Na-GTP]", "values": [{"measurement": "Effect on peak Kir2.1 current amplitude or kinetics of current decline", "setting": "Kir2.1 channel [2]; 100 μM Na-GTP in pipette alone or with 1 mM Mg-ATP", "result": "in neither setting did Na-GTP have an effect"}]}, {"molecule": "O=c1c2nc(Br)n([C@@H]3O[C@@H]4CO[P@@](O)(=S)O[C@H]4[C@H]3O)c2nc2[nH]c(-c3ccccc3)cn12", "note": "[Rp-8-Br-PET-cGMPS]", "values": [{"measurement": "Effect on Mg-ATP-mediated maintenance of Kir2.1 currents over 15 min", "setting": "Kir2.1 channel [2]", "result": "unaltered"}, {"measurement": "Effect on peak Kir2.1 current densities at -140 mV", "setting": "Kir2.1 channel [2]", "result": "absence of an effect"}]}, {"molecule": "NC(=O)c1nc(Nc2ccccc2)sc1NC(=O)C1CCCCC1", "note": "[UNC3230, 5-[(Cyclohexylcarbonyl)amino]-2-(phenylamino)-thiazolecarboxamide]", "values": [{"measurement": "Kir2.1 currents 15 min after PIP2 synthesis inhibitor", "setting": "Kir2.1 channel [2]; perforated-patch (intact cytoplasm), PIK93 300 nM, phenylarsine oxide 10 μM, UNC3230 100 nM, bath-applied", "result": "yielded similar results"}]}, {"molecule": "CCCCCCCC(=O)OCC(COP(=O)(O)OC1C(O)C(O)C(OP(=O)(O)O)C(OP(=O)(O)O)C1O)OC(=O)CCCCCCC", "note": "(stereo not drawn) [diC8-PIP2, 1,2-Dioctanoyl phosphatidylinositol 4,5-bisphosphate sodium salt]", "values": [{"measurement": "Initial Kir2.1 currents (at t0)", "setting": "Kir2.1 channel [2]; conventional whole-cell, 0 mM Mg-ATP + 10 μM diC8-PIP2 in pipette", "result": "did not elevate initial Kir2.1 currents"}, {"measurement": "Decline of Kir2.1 currents over 15 min", "setting": "Kir2.1 channel [2]; [7]", "result": "largely abrogated the decline in Kir2.1 currents"}, {"measurement": "Effect on PGE2-induced reduction of Kir2.1 current", "setting": "Kir2.1 channel [2]; dialyzed cECs", "result": "completely abrogated"}]}, {"molecule": "COc1ccc([C@@H]2Sc3ccccc3N(CCN(C)C)C(=O)[C@@H]2OC(C)=O)cc1", "note": "[diltiazem]", "values": [{"measurement": "Arteriolar diameter and capillary RBC flux (maximal response)", "setting": "[3]", "result": "dramatically dilated arterioles and enhanced capillary RBC flux"}]}, {"molecule": "HB-EGF: heparin-binding epidermal growth factor-like growth factor, EGFR ligand", "values": [{"measurement": "Upstream arteriole response to 10 mM K+ on capillaries", "setting": "[1]; CaPA from endothelial specific Kir2.1^-/- (Kir channel deficient) mice, HB-EGF or soluble PIP2 present", "result": "without effect"}, {"measurement": "Time after restoration of myogenic tone until dilation to capillary K+ appeared", "setting": "[1]; HB-EGF 30 ng/mL, TgNotch3^R169C CaPA", "result": "17 ± 0.5", "unit": "min"}, {"measurement": "Arteriolar dilation in response to capillary stimulation with 10 mM K+", "setting": "[1]; TgNotch3^R169C CaPA", "result": "gradually increased to the amplitude observed in preparations from the control group"}, {"measurement": "Myogenic tone of arteriolar segment", "setting": "[1]; TgNotch3^R169C", "result": "also restored myogenic tone"}, {"measurement": "Arteriolar segment diameter", "setting": "[1]; bath HB-EGF 30 ng/mL, TgNotch3^R169C CaPA", "result": "rapid and sustained constriction"}, {"measurement": "Kir2.1 current density", "setting": "Kir2.1 channel [4]; TgNotch3^R169C cECs", "result": "restored it"}, {"measurement": "Kir2.1 current density", "setting": "Kir2.1 channel [4]; TgNotch3^WT cECs", "result": "had no effect"}, {"measurement": "CBF responses to whisker stimulation", "setting": "functional hyperemia; CADASIL model (TgNotch3^R169C)", "result": "restored CBF responses to whisker stimulation in CADASIL model to control levels"}, {"measurement": "CBF responses to whisker stimulation", "setting": "functional hyperemia; control mice (TgNotch3^WT)", "result": "no significant effect"}]}, {"molecule": "SLIGRL-NH2", "values": [{"measurement": "Effect on capillary Kir2.1 currents", "setting": "Kir2.1 channel [2]; perforated patch, 15 min, SLIGRL-NH2 5 μM", "result": "had no effect"}]}, {"molecule": "TIMP3: recombinant soluble TIMP3, matrix metalloproteinase inhibitor (protein, UniProt P35625 24-211, looked up) Metalloproteinase inhibitor 3: CTCSPSHPQDAFCNSDIVIRAKVVGKKLVKEGPFGTLVYTIKQMKMYRGFTKMPHVQYIHTEASESLCGLKLEVNKYQYLLTGRVYDGKMYTGLCNFVERWDQLTLSQRKGLNYRYHLGCNCKIKSCYYLPCFVTSKNECLWTDMLSNFGYPGYQSKHYACIRQKGGYCSWYRGWAPPDKSIINATDP", "values": [{"measurement": "Arteriolar vasodilation induced by capillary stimulation with 10 mM K+", "setting": "[1]; TgNotch3^WT CaPA, bath 8 nM soluble recombinant TIMP3", "result": "gradually attenuated and, ultimately, abolished"}]}]}
